Data on 1 molecule can be found in patent publication US20250263370A1 (Tay Therapeutics Limited, priority 2022, published 2025).

“And” between values parts separate entries of the source, which are not always exact repeats. Identical values can stand only once. Like-named read-outs stand apart in the source and are kept apart here.

One series deals with BRD4 BD1 (Homo sapiens (Human), UniProt O60885). Put plainly: NanoBRET bromodomain assay, NanoLuc-BRD4-BD1 fusion in HEK293 cells. The format is cell-based. The conditions noted are these: top concentration 10 μM. In general terms: In BRET a luciferase serves as donor, and the signal depends on an acceptor being close.
Series [1] in a line: Plasma concentration of Example 101 in UUO rats by LC-MS/MS. The format is in vivo, rat. To be noted: for concentration at 4 h: rat, plasma, po, 30 mg/kg. From the text: Serum for blood biochemistry analysis was collected into centrifuge tubes without coagulant four hours after final dosing. Blood plasma samples from group 3 was collected into tubes with K2EDTA four hours after final dosing. At the conclusion of the study (end of the 14-day period), animals were euthanized. Kidney tissue was collected four hours after final dosing. Ligated side kidney was divided into three copies ⅓ fix into 10% formalin for H&E analysis, ⅓ into RNA for PCR analysis of tissue biomarkers Col1a1, TGF-b1, MCP-1, IL-1b, IL-6, IL-17, TNF-a, and Timp1, and ⅓ for hydroxyproline assay analyzed by ELISA. RNA was extracted from tissue using the RNeasy mini kit (Qiagen). RNA concentration was measured using a NanoDrop One Spectrophotometer (ThermoFisher) and converted to cDNA using a High-Capacity RNA-to-cDNA kit (Invitrogen). RT-PCR was performed to measure levels of mRNA of different targets using TaqMan® Gene Expression Master Mix and TaqMan® probe/primer sets on a QuantStudio 6, Real-Time PCR System (ThermoFisher). Fold change in target gene expression was determined using the ΔΔCt method.
Samples were analyzed on a Raptor Biphenyl 2.7 μm 50×2.1 mm column. Solution A in the mobile phase was 95% water (0.1% formic acid) and solution B was 95% acetonitrile in water (0.1% formic acid), injection volume was 20 μL, and flow rate was 0.5 mL/min.
To prepare samples for analysis, serial concentrations were prepared by diluting the stock solution of analyte with a 50% acetonitrile in water solution. 5 μL working solutions (5, 10, 20, 50, 100, 500, 1000, 5000, and 10000 ng/mL) were added to 50 μL of the blank SD rat plasma to achieve calibration standards of −0.5 to 1000 ng/mL (0.5, 1, 2, 5, 10, 50, 100, 500, and 1000 ng/mL) in a total volume of 55 μL. […]
55 μL of standards, 55 μL of QC samples and 55 μL of unknown samples (50 μL of unknown rat plasma with 5 μL of blank solution) were added to 200 μL of acetonitrile containing IS mixture for precipitating protein respectively. […] 20 μL of diluted supernatant was injected into the LC/MS/MS system for quantitative analysis.

For another series, the target named is BD 2 (Homo sapiens, UniProt O60885). Put plainly: Free EC50 for BD 2, compared with plasma concentration.

As to `CNC(=O)c1[nH]c(C(=O)NC2CCC2)cc1O[C@@H](C)c1ccccc1` (stereo in doubt) [Example 101, N^5-cyclobutyl-N^2-methyl-3-(1-phenylethoxy)-1H-pyrrole-2,5-dicarboxamide], the IC50 (as a rule, the concentration at which inhibition is half-maximal) on BRD4 BD1 was no less than 10 µM. The “Plasma concentration of Example 101” value in series [1] (male SD rats, oral, 4 h after final treatment, individual test subjects) was 485 ng/mL and 959 ng/mL and 760 ng/mL and 859 ng/mL and 906 ng/mL and 1160 ng/mL and 665 ng/mL and 941 ng/mL. For the same molecule, the concentration at 4 h in series [1] (male, SD, Mean plasma concentration of Example 101, male SD rats, oral, 4 h after final treatment, mean of 8 subjects) turned out to be 846 ng/mL; in series [1] (UUO rats, 30 mg/kg oral, four hours after final treatment, read-out: mean plasma concentration) it was 846 ng/mL. In addition, a half-maximal effect on BD 2 (EC50) was put at 606 nM.
